Where a name gives a salt, the structure may show the parent alone. Square brackets hold non-standard residues; d marks the D form. Peptide text beside a SMILES is read from it. * marks the point of attachment. Propyl(2R-PamO,3-PamO) = CCCCCCCCCCCCCCCC(=O)OC[C@H](C*)OC(=O)CCCCCCCCCCCCCCC
Tests used:
leukocytes = test: Enhancing the number of leukocytes in cyclophosphamide-treated mice; type: in vivo, CDF1/Crj mice; settings: percentage relative to mice without cyclophosphamide (100%)
Description: Six weeks old female CDF1/Crj mice (5 animals per group) were subjected to the experiment. Each animal was orally administered with cyclophosphamide dissolved in physiological saline solution at a dose of 150 mg/kg. From the next day, each animal was administered subcutaneously with the compound suspended in 5% glucose at the following dosage for five days once a day. On the next day after completion of the administration, about 100 µl of peripheral blood was collected from orbital vein using an EDTA-treated glass capillary. Then, the number of leukocytes was counted using an automatic cell analyzer (Sysmex K-2000, Toa Medical Electronics, Japan).

[1] = test system: bone marrow cells of BALB/c mice; test: Enhancing proliferation of bone marrow cells of mice (MTT reduction method); type: cell-based; settings: concentration giving 1.3 or more times the proliferation of the group without test compound; 37°C, 3 days
Description: Actions of compound (I) produced in the foregoing Examples on enhancing proliferation of bone marrow cells of mice are shown in Table 2.
To a RPMI 1640 culture medium [Bio-Wittaker Inc. (hereinafter abbreviated as BW), U.S.A.] containing 2 x 10⁶/ml of bone marrow cells of BALB/c mice, 2 mM of L-glutamine, 20 µg/ml of gentamicin (Flow Laboratories, Inc., Scotland), 10% fetal calf serum (BW, U.S.A.) was added a test compound in an adequate concentration, which was incubated at 37°C for 3 days in 5% carbon dioxide in air followed by determination of proliferation of the bone marrow cells by the MTT reduction method [Tada et al., Journal of Immunological Methods, Vol. 93, p.157, 1986].

[2] = test system: Non adherent bone marrow cells of BALB/c mice; test: Enhancing development of AchE positive cells (fluorescence method); type: cell-based; settings: 10 ng/ml; 37°C, 5 days; AchE activity in the group without compound is shown as 1
Source text: Action of compound (I) on enhancing development of acetylcholine esterase (hereinafter abbreviated as AchE) positive cells are shown in Table 4.
The AchE activity was studied according to a fluorescence method (Ishibashi et al., Proceedings of the National Academy of Science U.S.A., Vol. 86, pp. 5953 to 5957, 1989).
Non adherent bone marrow cells of BALB/c mice (1 x 10⁶ cells/ml) were suspended in Iscove's modification of Dulbecco's medium (Gibco BRL Inc., U.S.A.) containing 1% Neutridoma-SP (Boheringer Mannhaim, Germany). Twenty-five µl of a test compound solution in an adequate concentration was inoculated in a 96-well plate. To each of these solutions in the well was added 100 µl of the non adherent bone marrow cells suspension. After incubation at 37°C for 5 days, 25 µl of 6% glutaraldehyde aqueous solution was added to the well. After standing at 4°C for 30 minutes the mixture was centrifuged (850 x g) at 5°C for 5 minutes and the supernatant was removed. […] To this was added 10 µl of 0.4 mM 7-diethylamino-3-(4'-maleimidylphenyl)-4-methylcoumarin aqueous solution and 100 µl of buffer (pH 5.0) containing 0.2% POPE, 1 mM EDTA and 50 mM sodium acetate and fluorescence emission was determined on a fluorometer (excitation wave length: 365 nm, fluorescence wave length: 450 nm).

mice = test: Toxicity test, intravenous administration; type: in vivo; settings: intravenous administration at 125 mg/kg
Description: Intravenous administration of trisodium salt of compound 1 at 125 mg/kg caused no death in mice.

Structure (SMILES): CCCCCCCCCCCCCCCC(=O)OC[C@H](CSC[C@H](NC(=O)CN)C(=O)N[C@@H](CCC(=O)O)C(=O)NCC(=O)N[C@H](CCC(=O)O)C(=O)O)OC(=O)CCCCCCCCCCCCCCC [Compound 1, (2R,6R)-2-(H-Gly-amino)-6,7-bis(PamO)-4-THT-Glu-Gly-D-Glu-OH] (H-GC(Propyl(2R-PamO,3-PamO))EG[dE]-OH)
- Number of leukocytes (leukocytes; 0.50 mg/kg/day subcutaneously for 5 days after oral cyclophosphamide 150 mg/kg): 137%
- Minimal Effective Concentration (MEC, ng/ml) [1]: 6.25 ng/mL
- Degree of AchE Positive Cell [2]: 1.92

Structure (SMILES): CCCCCCCCCCCCCCCC(=O)OC[C@H](CSC[C@H](NC(=O)CNC(=O)[C@@H](N)CCC(=O)O)C(=O)N[C@@H](CCC(=O)O)C(=O)NCC(=O)N[C@H](CCC(=O)O)C(=O)O)OC(=O)CCCCCCCCCCCCCCC [Compound 4, (2R,6R)-2-(H-Glu-Gly-amino)-6,7-bis(PamO)-4-THT-Glu-Gly-D-Glu-OH] (H-EGC(Propyl(2R-PamO,3-PamO))EG[dE]-OH)
- Number of leukocytes (leukocytes; 0.13 mg/kg/day subcutaneously for 5 days after oral cyclophosphamide 150 mg/kg): 108%

Structure (SMILES): CCCCCCCCCCCCCCCC(=O)OC[C@H](CSC[C@H](NC(=O)[C@@H](N)Cc1ccc(O)cc1)C(=O)N[C@@H](CCC(=O)O)C(=O)NCC(=O)N[C@H](CCC(=O)O)C(=O)O)OC(=O)CCCCCCCCCCCCCCC [Compound 5, (2R,6R)-2-(H-Tyr-amino)-6,7-bis(PamO)-4-THT-Glu-Gly-D-Glu-OH] (H-YC(Propyl(2R-PamO,3-PamO))EG[dE]-OH)
- Minimal Effective Concentration (MEC, ng/ml) [1]: 6.25 ng/mL

Structure (SMILES): CCCCCCCCCCCCCCCC(=O)OC[C@H](CSC[C@H](NC(=O)CN)C(=O)N[C@@H](CCC(=O)O)C(=O)NCC(=O)N[C@H](CCC(=O)O)C(=O)O)OC(=O)CCCCCCCCCCCCCCC [trisodium salt of compound 1] (H-GC(Propyl(2R-PamO,3-PamO))EG[dE]-OH)
- death (mice): no death
